According to patent US20210147455A1 (SHAANXI SYNTHETIC PHARMACEUTICAL CO., LTD., priority 2018, published 2021):

Legend:
[1] = Hygroscopicity study (Chinese Pharmacopoeia 2015, 9103); type: physicochemical; conditions: for Hygroscopic weight gain: 25° C.±1° C., saturated ammonium chloride solution, 24 hours; for Conclusion (hygroscopicity): after 24 hours
Description: Test method: • 1. A dried glass weighing bottle with stopper (having an outer diameter of 50 mm and a height of 15 mm) was placed in a thermostatic drier (a saturated ammonium chloride solution was placed on the lower part of the thermostatic drier) at an appropriate temperature of 25° C.±1° C. on the day earlier before the test, and the weight (m1) of weighing bottle was precisely weighed. • 2. An appropriate amount of test sample was taken and spread in the weighing bottle, and the thickness of the test sample was controlled to about 1 mm, and the weight (m2) was precisely weighed. • 3. The weighing bottle was opened and was placed, together with the bottle cap, under the above mentioned constant temperature and humidity condition for 24 hours. • 4. The weighing bottle was capped and precisely weighed to obtain the weight (m3).
Description of hygroscopicity characterization and delimitation of hygroscopicity weight gain: Deliquescence: enough moisture is absorbed to form a liquid. […] Slightly hygroscopic: hygroscopic weight gain is less than 2% but not less than 0.2%. Not or hardly hygroscopic: hygroscopic weight gain is less than 0.2%.

[2] = Stability experiments under 25° C.±2° C. and 65% R.H±5% R.H; conditions: 25° C./65% R.H
Source text: • 1. […] The results are shown in detail in the following table.

[3] = Stability experiments under 40° C.±2° C. and 75% R.H±5% R.H (accelerated test); type: physicochemical; conditions: 40° C./75% R.H

Row | Compound | Hygroscopic weight gain [1] | Content ([2]; month 0) | Description ([2]; month 0) | Related substance ([2]; month 0) | Content ([2]; month 3) | Content ([3]; month 0) | Description ([3]; month 0) | Related substance ([3]; month 0) | Content ([3]; month 1) | Description ([3]; month 1) | Related substance ([3]; month 1) | Content ([3]; month 2) | Description ([3]; month 2) | Related substance ([3]; month 2) | Content ([3]; month 3) | Description ([3]; month 3) | Related substance ([3]; month 3) | Content ([3]; month 6) | Description ([3]; month 6) | Related substance ([3]; month 6) | other results
1 | CC[C@@H]([C@H](C)OP(=O)([O-])[O-])n1ncn(-c2ccc(N3CCN(c4ccc(OC[C@@H]5CO[C@@](Cn6cncn6)(c6ccc(F)cc6F)C5)cc4)CC3)cc2)c1=O.C[N+](C)(C)CCO.C[N+](C)(C)CCO [Comparative Example 1, Posaconazole Phosphate Bicholinate] | 8.76% | 99.87% | White | 0.13% | 99.86% | 99.87% | White | 0.13% | 99.86% | White | 0.14% | 99.84% | White | 0.16% | 99.80% | White | 0.20% | 99.65% | White | 0.35% | Description ([2]; month 3): White; Related substance ([2]; month 3): 0.14%; Content ([2]; month 6): 99.81%; Description ([2]; month 6): White; Related substance ([2]; month 6): 0.19%; Content ([2]; month 9): 99.77%; Description ([2]; month 9): White; Related substance ([2]; month 9): 0.23%; Content ([2]; month 12): 99.61%; Description ([2]; month 12): White; Related substance ([2]; month 12): 0.31%; Content ([2]; month 24): 99.22%; Description ([2]; month 24): White; Related substance ([2]; month 24): 0.78%
2 | CCC(C(C)OP(=O)([O-])[O-])n1ncn(-c2ccc(N3CCN(c4ccc(OCC5COC(Cn6cncn6)(c6ccc(F)cc6F)C5)cc4)CC3)cc2)c1=O.C[N+](C)(C)CCO.C[N+](C)(C)CCO.O.O.O.O.O (stereo not drawn) [Comparative Example 2, Posaconazole Phosphate Bicholinate Pentahydrate] | 11.81% | 99.87% | White | 0.13% | 99.86% | 99.87% | White | 0.13% | 99.86% | White | 0.14% | 99.85% | White | 0.16% | 99.79% | White | 0.21% | 99.64% | White | 0.36% | Description ([2]; month 3): White; Related substance ([2]; month 3): 0.14%; Content ([2]; month 6): 99.81%; Description ([2]; month 6): White; Related substance ([2]; month 6): 0.19%; Content ([2]; month 9): 99.75%; Description ([2]; month 9): White; Related substance ([2]; month 9): 0.25%; Content ([2]; month 12): 99.71%; Description ([2]; month 12): White; Related substance ([2]; month 12): 0.29%; Content ([2]; month 24): 99.18%; Description ([2]; month 24): White; Related substance ([2]; month 24): 0.82%
3 | CC[C@@H]([C@H](C)OP(=O)(O)O)n1ncn(-c2ccc(N3CCN(c4ccc(OC[C@@H]5CO[C@@](Cn6cncn6)(c6ccc(F)cc6F)C5)cc4)CC3)cc2)c1=O.CNC[C@H](O)[C@@H](O)[C@H](O)[C@H](O)CO [Comparative Example 4, Posaconazole Phosphate Monomeglumine Salt] | 0.88% | 99.87% | White | 0.13% | 99.81% | 99.87% | White | 0.13% | 99.73% | White | 0.27% | 99.62% | White | 0.38% | 99.50% | White | 0.50% | 99.36% | White | 0.64% | Conclusion (hygroscopicity) [1]: Slight hygroscopicity; Description ([2]; month 3): White; Related substance ([2]; month 3): 0.19%; Content ([2]; month 6): 99.69%; Description ([2]; month 6): White; Related substance ([2]; month 6): 0.31%; Content ([2]; month 9): 99.57%; Description ([2]; month 9): White; Related substance ([2]; month 9): 0.43%; Content ([2]; month 12): 99.50%; Description ([2]; month 12): White; Related substance ([2]; month 12): 0.50%; Content ([2]; month 24): 98.98%; Description ([2]; month 24): White; Related substance ([2]; month 24): 1.02%
4 | Posaconazole Phosphate Monosodium Salt [Comparative Example 8] | 1.92% | – | – | – | – | 99.87% | White | 0.13% | 99.71% | White | 0.29% | 99,63% | White | 0.37% | 99.47% | White | 0.53% | 99.32% | White | 0.68% | Conclusion (hygroscopicity) [1]: Slight hygroscopicity
